One test has as its system MCF7. Kind of test: Growth inhibition of human MCF7 cells after 72 hrs by MTT assay. The format is functional, cell-based. As to conditions: MCF7, 72 h. In general terms: Tetrazolium dyes change colour on reduction, which living cells bring about.
The subject of test [1] is MDA-MB-231. Kind of test: Growth inhibition of human MDA-MB-231 cells after 72 hrs by MTT assay. The class given is functional, cell-based. The settings on record: MDA-MB-231, 72 h.
For test [2], the system named is MDA-MB-231. Kind of test: Cytotoxicity against human MDA-MB-231 cells assessed as growth inhibition after 24 hrs by MTT assay. The format is cell-based. As to conditions: MDA-MB-231, 24 h.
Test [3] relates to MDA-MB-231. Kind of test: Antimigratory activity against human MDA-MB-231 cells after 24 hrs by wound-healing assay. The class given is functional, cell-based. As to conditions: MDA-MB-231, 24 h.

The IC50 is the concentration that inhibits the measured activity by half. On to `CCOC(CCNCc1c(C)ccc([C@@H](C)CCC=C(C)C)c1O)OCC`, for which the IC50 in the test on MCF7 was 10.3 µM; in the test with MDA-MB-231 [1] it was 14.9 µM; in the test on MDA-MB-231 [2], above 20 µM; in the test with MDA-MB-231 [3], above 20 µM.
Regarding `CCOC(CCN1COc2c([C@@H](C)CCC=C(C)C)ccc(C)c2C1)OCC`, the concentration for half-maximal inhibition (IC50) in the test with MCF7 is 13.2 µM; with MDA-MB-231 [1], 11.3 µM; in the test with MDA-MB-231 [2], above 20 µM; in the test on MDA-MB-231 [3], 3.1 µM.

(Values after ChEMBL document CHEMBL3390836, “Mannich- and LedererManasse-based analogues of the natural product S-(+)-curcuphenol as cancer proliferation and migration inhibitors” (Medchemcomm, 2012).)
